From patent publication US8084649B2, “Herbicides” (Syngenta Crop Protection, inc., priority 2007, dated 2011)

How the values were obtained:
Assay type in all cases: in vivo
[1] = system: Alopecurus myosuroides (ALOMY); experiment: Post-emergence herbicidal activity, glasshouse pot test; conditions: Alopecurus myosuroides, rate 125 g/ha, evaluated after 14 or 15 days, read-out: Post-emergence activity, ALOMY (100=total damage to plant; 0=no damage to plant)
Method: (§1) Monocotyledonous and dicotyledonous test plants were sown in sterilised standard soil in pots. After cultivation for one day (pre-emergence) or after 10 days cultivation (post-emergence) under controlled conditions in a glasshouse, the plants were sprayed with an aqueous spray solution derived from the formulation of the technical active ingredient in 0.6 ml acetone and 45 ml formulation solution containing 10.6% Emulsogen EL (Registry number 61791-12-6), 42.2% N-methylpyrrolidone, 42.2% dipropylene glycol monomethyl ether (Registry number 34590-94-8) and 0.2% X-77 (Registry number 11097-66-8). The test plants were then grown in a greenhouse under optimum conditions until, 14 or 15 days later for post-emergence and 20 days for pre-emergence, the test was evaluated (100=total damage to plant; 0=no damage to plant). Alopecurus myosuroides (ALOMY), Avena fatua (AVEFA), Lolium perenne (LOLPE), Setaria faberi (SETFA), Digitaria sanguinalis (DIGSA), Echinochloa crus-galli (ECHCG) Post-Emergence Activity

Avena fatua (AVEFA) [2] = experiment: as above; conditions: Avena fatua, rate 125 g/ha, evaluated after 14 or 15 days, read-out: Post-emergence activity, AVEFA (100=total damage to plant; 0=no damage to plant)
Method: as §1

Lolium perenne (LOLPE) [3] = experiment: as above; conditions: Lolium perenne, rate 125 g/ha, evaluated after 14 or 15 days, read-out: Post-emergence activity, LOLPE (100=total damage to plant; 0=no damage to plant)
Method: as §1

[4] = system: Digitaria sanguinalis (DIGSA); experiment: as above; conditions: Digitaria sanguinalis, rate 125 g/ha, evaluated after 14 or 15 days, read-out: Post-emergence activity, DIGSA (100=total damage to plant; 0=no damage to plant)
Method: as §1

Setaria faberi (SETFA) [5] = experiment: as above; conditions: Setaria faberi, rate 125 g/ha, evaluated after 14 or 15 days, read-out: Post-emergence activity, SETFA (100=total damage to plant; 0=no damage to plant)
Method: as §1

[6] = system: Alopecurus myosuroides (ALOMY); experiment: Pre-emergence herbicidal activity, glasshouse pot test; conditions: Alopecurus myosuroides, 480 h, rate 500 g/ha, evaluated after 20 days, read-out: Pre-emergence activity, ALOMY (100=total damage to plant; 0=no damage to plant)
Method: as §1, with “Pre-Emergence” for “Post-Emergence”

Avena fatua (AVEFA) [7] = experiment: as above; conditions: Avena fatua, 480 h, rate 500 g/ha, evaluated after 20 days, read-out: Pre-emergence activity, AVEFA (100=total damage to plant; 0=no damage to plant)
Method: as §1, with “Pre-Emergence” for “Post-Emergence”

[8] = system: Echinochloa crus-galli (ECHCG); experiment: as above; conditions: Echinochloa crus-galli, 480 h, rate 500 g/ha, evaluated after 20 days, read-out: Pre-emergence activity, ECHCG (100=total damage to plant; 0=no damage to plant)
Method: as §1, with “Pre-Emergence” for “Post-Emergence”

Lolium perenne (LOLPE) [9] = experiment: as above; conditions: Lolium perenne, 480 h, rate 500 g/ha, evaluated after 20 days, read-out: Pre-emergence activity, LOLPE (100=total damage to plant; 0=no damage to plant)
Method: as §1, with “Pre-Emergence” for “Post-Emergence”

[10] = system: Digitaria sanguinalis (DIGSA); experiment: as above; conditions: Digitaria sanguinalis, 480 h, rate 500 g/ha, evaluated after 20 days, read-out: Pre-emergence activity, DIGSA (100=total damage to plant; 0=no damage to plant)
Method: as §1, with “Pre-Emergence” for “Post-Emergence”

Setaria faberi (SETFA) [11] = experiment: as above; conditions: Setaria faberi, 480 h, rate 500 g/ha, evaluated after 20 days, read-out: Pre-emergence activity, SETFA (100=total damage to plant; 0=no damage to plant)
Method: as §1, with “Pre-Emergence” for “Post-Emergence”

Compound | pest or weed control at 125 g/ha [1] [%] | pest or weed control at 125 g/ha (Avena fatua (AVEFA) [2]) [%] | pest or weed control at 125 g/ha (Lolium perenne (LOLPE) [3]) [%] | pest or weed control at 125 g/ha [4] [%] | pest or weed control at 125 g/ha (Setaria faberi (SETFA) [5]) [%] | pest or weed control at 500 g/ha [6] [%] | pest or weed control at 500 g/ha (Avena fatua (AVEFA) [7]) [%] | pest or weed control at 500 g/ha [8] [%] | pest or weed control at 500 g/ha (Lolium perenne (LOLPE) [9]) [%] | pest or weed control at 500 g/ha [10] [%] | pest or weed control at 500 g/ha (Setaria faberi (SETFA) [11]) [%]
CCc1cc(C)cc(CC)c1C1=C(OC(=O)CC(C)(C)C)CC2(CCOCC2)CC1=O [Compound P6] | 60 | 80 | 10 | 30 | 0 | 100 | 90 | 70 | 100 | 100 | 70
C#CCOC1=C(c2c(CC)cc(C)cc2CC)C(=O)CC2(CCOCC2)C1 [Compound P31, 9-(2,6-diethyl-4-methylphenyl)-10-prop-2-ynyloxy-3-oxaspiro[5.5]undec-9-en-8-one] | 70 | 70 | 50 | 20 | 60 | 100 | 100 | 100 | 100 | 100 | 90
CCCC(CC)C(=O)OC1=C(c2c(CC)cc(C)cc2CC)C(=O)CC2(CCOCC2)C1 (centres unmarked) [Compound P15] | 10 | 70 | 0 | 70 | 40 | 0 | 90 | 60 | 100 | 90 | 70
CCc1cc(C)cc(CC)c1C1=C(OS(=O)(=O)CC)CC2(CCOCC2)CC1=O [Compound P28] | 0 | 10 | 0 | 10 | 0 | 80 | 30 | 10 | 80 | 70 | 70
CCC(=O)OC1=C(c2c(CC)cc(C)cc2CC)C(=O)CC2(CCOCC2)C1 [Compound P2] | 80 | 90 | 80 | 100 | 70 | 100 | 100 | 100 | 100 | 100 | 100
CCCOC1=C(c2c(CC)cc(C)cc2CC)C(=O)CC2(CCOCC2)C1 [Compound P41] | 10 | 10 | 0 | 50 | 0 | 70 | 10 | 40 | 0 | 90 | 10
CCCCCCC(=O)OC1=C(c2c(CC)cc(C)cc2CC)C(=O)CC2(CCOCC2)C1 [Compound P10] | 100 | 100 | 90 | 80 | 70 | 100 | 100 | 100 | 100 | 100 | 100
